Assay results from patent US20220380801A1, “TRIPARTITE SYSTEMS FOR PROTEIN DIMERIZATION AND METHODS OF USE” (priority 2019, published 2022).

Key:
[1] = system: HEK293 cells stably expressing the PRSIM-based kill switch; test: Kill switch cell viability (phase contrast); type: cell-based, human; details: 100 nM simeprevir
Procedure: Lentiviral particles encoding the kill switch fusion protein (SEQ ID NO: 223) or kill switch S196A mutant fusion protein (SEQ ID NO: 230) were generated using pPACKH1 HIV lentiviral packaging kit (Systems Bioscience), according to manufacturer's instructions. HEK293 cells were transduced for 24 h in the presence of 8 μg/ml polybrene after which cells were changed into fresh growth medium (DMEM+10% foetal bovine serum+1% Non-essential amino acids). 24 h later transduced cells were selected by addition of 2 μg/ml puromycin for 5 days. Before functional testing, transduced cell pools were FACS sorted based on GFP fluorescence to isolate high expressing cell line pools and single cell clones.
HEK293, HCT116 or HT29 cells stably expressing the PRSIM-based kill switch fusion protein (SEQ ID NO: 223) or HEK293 cells stably expressing the PRSIM kill switch S196A mutant fusion protein (SEQ ID NO: 230) were plated onto collagen-coated 96-well plates and 24 h later treated with 100 nM simeprevir. Phase contrast images were acquired at various timepoints using 10× or 20× objectives on an Incucyte Zoom (EssenBioscience).

[2] = system: IL-2 production by split CAR-expressing Jurkat cells; test: Split chimeric antigen receptor activation assay; type: cell-based
Source text: A chimeric antigen receptor (CAR), a synthetic, genetically engineered version of a T-cell receptor, can direct the activation of immune cells in response to user-defined targets via target-specific recognition domains, e.g. a single chain variable antibody fragment (scFv). These multi-domain, synthetic proteins are typically constructed by fusion of the target recognition domain to a transmembrane domain, T-cell receptor co-stimulatory domain and a C-terminal CD3 zeta cytoplasmic activation domain. A split-CAR can be generated by expressing the target recognition/transmembrane/co-stimulatory domain and the CD3 zeta activation domain as two separate proteins. […]
Lentiviral particles encoding each split CAR were generated using the pPACKH1 HIV lentivector packaging kit (Systems Bioscience), according to the manufacturer's protocol. […] Split CAR-transduced Jurkat cell pools were FACS-sorted based on GFP fluorescence to achieve equivalent expression levels for both the FKBP12:FRB and HCV NS3/4A PR (S139A):PRSIM_23 CARs before functional testing. Activation of the split-CAR-expressing Jurkat cells can be measured by interleukin-2 (IL-2) production after stimulation of the CAR (Smith-Garvin, Koretzky, and Jordan 2009). […]

COc1ccc2c(O[C@@H]3C[C@H]4C(=O)N[C@]5(C(=O)NS(=O)(=O)C6CC6)C[C@H]5/C=C\CCCCN(C)C(=O)[C@@H]4C3)cc(-c3nc(C(C)C)cs3)nc2c1C [simeprevir]
cell killing ([1]; kill switch S196A): rapid cell killing in a timeframe comparable to the wt kill switch
cell death ([1]; wt kill switch): rapid cell death
activation of CAR-expressing Jurkat cells (IL-2 production) ([2]; co-culture with antigen-negative A375 cells): no activation
activation of CAR-expressing Jurkat cells (IL-2 production) ([2]; co-culture with antigen-positive HepG2 cells): dose-dependent activation
